This passage reports IC50, MMP1 % inhibition and MMP9 % inhibition results from patent publication US6753337B2, “Alkynyl containing hydroxamic acid compounds as matrix metalloproteinase/tace inhibitors” (Wyeth Holdings Corporation, priority 1999, dated 2004).

Format in all cases: biochemical
The target of experiment [1] is T1, MMP-1 (Homo sapiens, UniProt P03956).
T1 sequence (P03956 100-469): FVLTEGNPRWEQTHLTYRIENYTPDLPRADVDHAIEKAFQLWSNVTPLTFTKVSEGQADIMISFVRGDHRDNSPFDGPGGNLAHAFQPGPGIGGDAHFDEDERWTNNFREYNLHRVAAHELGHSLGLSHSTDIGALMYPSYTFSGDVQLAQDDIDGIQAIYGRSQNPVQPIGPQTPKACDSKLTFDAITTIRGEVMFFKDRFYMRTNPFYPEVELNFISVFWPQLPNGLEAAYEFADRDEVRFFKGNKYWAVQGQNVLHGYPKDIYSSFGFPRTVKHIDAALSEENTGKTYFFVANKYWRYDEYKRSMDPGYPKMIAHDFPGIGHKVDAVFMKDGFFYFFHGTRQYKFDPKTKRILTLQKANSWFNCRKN
As to the kind of experiment: MMP-1 inhibition (thiopeptide or fluorescent peptide substrate). The note with it: for IC50: read-out: MMP1 IC50.

The target in experiment [2] is MMP-9 (Homo sapiens, UniProt P14780). As to the kind of experiment: MMP-9 inhibition (thiopeptide or fluorescent peptide substrate). The note with it: for IC50: read-out: MMP9 IC50.
Chain of MMP-9 (P14780 94-707): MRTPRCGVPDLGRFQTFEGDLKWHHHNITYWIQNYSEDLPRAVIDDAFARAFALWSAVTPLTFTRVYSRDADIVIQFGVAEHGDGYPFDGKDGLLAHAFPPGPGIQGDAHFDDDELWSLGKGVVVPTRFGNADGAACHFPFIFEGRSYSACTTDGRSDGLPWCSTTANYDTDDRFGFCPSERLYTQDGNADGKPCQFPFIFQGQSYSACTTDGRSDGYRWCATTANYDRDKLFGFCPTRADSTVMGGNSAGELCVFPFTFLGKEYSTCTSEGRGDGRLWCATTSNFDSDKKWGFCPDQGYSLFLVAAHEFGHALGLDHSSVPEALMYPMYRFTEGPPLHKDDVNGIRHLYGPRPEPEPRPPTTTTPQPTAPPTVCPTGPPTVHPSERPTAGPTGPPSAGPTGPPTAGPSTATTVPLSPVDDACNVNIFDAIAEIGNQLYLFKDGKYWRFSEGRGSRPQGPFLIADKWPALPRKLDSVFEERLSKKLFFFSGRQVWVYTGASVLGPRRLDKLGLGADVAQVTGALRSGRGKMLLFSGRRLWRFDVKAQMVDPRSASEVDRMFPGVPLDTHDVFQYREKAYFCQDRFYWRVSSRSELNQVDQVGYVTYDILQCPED
Experiment [3] has as its target MMP-13 (Homo sapiens, UniProt P45452). The experiment is described as follows: MMP-13 inhibition (thiopeptide or fluorescent peptide substrate). The note with it: read-out: MMP13 IC50. The method, boiled down:
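Human recombinant MMP-1, MMP-9 or MMP-13 was run either with a thiopeptide substrate plus DTNB (1 mM working dilution) in 50 mM HEPES pH 7.5, 5 mM CaCl2 (colorimetric), or with a quenched fluorescent peptide in HCBC buffer pH 7.0. Reactions started with substrate; the rate slope was compared with control by Dunnett's test.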

The term IC50 denotes the concentration that inhibits the measured activity by half. With `CC#CCOc1ccc(S(=O)(=O)C2(C(=O)NO)CCN(C(=O)c3cccnc3)CC2)cc1` [Example 70, 4-(4-But-2-ynyloxybenzenesulfonyl)-N-hydroxy-1-(3-pyridinylcarbonyl)-4-piperidinecarboxamide], the IC50 came to 2960 nM in experiment [1], 639 nM in experiment [2] and 113 nM in experiment [3].

Take `CC#CCOc1ccc(S(=O)(=O)CC2(C(=O)NO)CCN(C(=O)C(C)(CO)CO)CC2)cc1` [Example 43, 4-({[4-(2-Butynyloxy)phenyl]sulfonyl}methyl)-N-hydroxy-1-[3-hydroxy-2-(hydroxymethyl)-2-methylpropanoyl]-4-piperidinecarboxamide]: the IC50 in experiment [1] is about 10000 nM; in experiment [2] it was over 10000 nM; in experiment [3] it was 1640 nM.

As to `CC#CCOc1ccc(S(=O)(=O)C2(C(=O)NO)CCN(Cc3ccc(Cl)cc3)CC2)cc1` [Example 3, 4-(4-But-2-ynyloxy-benzenesulfonyl)-1-(4-chloro-benzyl)-piperdine-4-carboxylic acid hydroxyamide], the IC50 was found to be 9000 nM in experiment [1], 280 nM in experiment [2] and 90 nM in experiment [3].

In the case of `CC#CCOc1ccc([S+]([O-])C2(C(=O)NO)CCN(C(=O)OC(C)(C)C)CC2)cc1` (stereo not drawn) [Example 80, tert-butyl 4-{[4-(but-2-ynyloxy)phenyl]sulfinyl}-4-[(hydroxyamino)carbonyl]piperidine-1-carboxalate], the figures for the half-maximal inhibitory concentration (IC50) in experiment [1], in experiment [2] and in experiment [3] were 186000 nM, 122 nM and 40 nM, respectively.

On to `CC#CCOc1ccc(S(=O)(=O)CC2(C(=O)NO)CCN(C(=N)N)CC2)cc1` [Example 44], for which the MMP1 % inhibition in experiment [1] (printed in the MMP1 IC50 column, concentration not given) is on record as 35%. The molecule also had an MMP9 % inhibition in experiment [2] (printed in the MMP9 IC50 column, concentration not given) of 50.6%. In experiment [3], the IC50 is 2380 nM.

Consider `CC#CCOc1ccc([S+]([O-])CC2(C(=O)NO)CCNCC2)cc1` (stereo not drawn) [Example 33, 4-[[[4-(2-Butynyloxy)phenyl]sulfinyl]methyl]-N-hydroxy-4-piperidinecarboxamide], for which the values for the IC50 in experiment [1], in experiment [2] and in experiment [3] were over 10000 nM, over 5000 nM and about 10000 nM, respectively.

As for `CC#CCOc1ccc(S(=O)(=O)C2(C(=O)NO)CCN(Cc3ccc(C#N)cc3)CC2)cc1` [Example 8, 4-(4-But-2-ynyloxy-benzenesulfonyl)-1-(4-cyano-benzyl)-piperidine-4-carboxylic acid hydroxyamide], the IC50 in experiment [1] was found to be 4700 nM; in experiment [2], 218 nM; in experiment [3], 72 nM.
